Experimental data taken from US20180117029A1, “Targeting Metabolic Vulnerability in Triple-Negative Breast Cancer” (Beth Israel Deaconess Medical Center, Inc., priority 2016, published 2018).

What was measured:
SUM-159PT cells [1] = assay: Propidium iodide viability assay in SUM-159PT cells; assay type: cell-based; settings: for single-agent activity (percentage of dead cells) / sensitization of SUM-159PT cells to doxorubicin (percentage of dead cells): 80 μM PALA; for single-agent activity (percentage of dead cells): 0.3 μM brequinar or 20 μM A771726, without doxorubicin; for sensitization of SUM-159PT cells to doxorubicin (percentage of dead cells): 0.3 μM brequinar or 20 μM A771726 pre-treatment 12 hours
Procedure: Propidium iodide viability assay: Cell viability was assayed with a prodium iodide-based plate reader assay, as previously described (25). Briefly, cells in 96-well plates were treated with a final concentration of 30 μM propidium iodide for 60 minutes at 37° C. The initial fluorescence intensity was measured before digitonin was added to each well at a final concentration of 600 μM. After incubating for 30 minutes at 37° C., the final fluorescence intensity was measured. The fraction of dead cells was calculated by dividing the background-corrected initial fluorescence intensity by the final fluorescence intensity.

SUM-159PT cells [2] = assay: Fluorescence-based deoxyribonucleoside triphosphate assay in SUM-159PT cells; assay type: cell-based; settings: for dCTP and dTTP (pyrimidine nucleoside triphosphate) levels, fluorescence-based assay: 0.5 μM doxorubicin or 12.5 μM cisplatin, 10 hours
Procedure: (§1) Deoxyribonucleoside triphosphate assay: Cells were maintained in full growth medium, and fresh medium was added at the time cells were treated with doxorubicin. In some cases, SUM-159PT cells were switched to Ham's F12 medium lacking glutamine. For metabolite extraction, medium was aspirated and ice-cold 60% (v/v) methanol was added. The insoluble material in lysates was pelleted by centrifugation at 10,000 g for 10 min. The resulting metabolite-containing supernatants were evaporated using a refridgerated SpeedVac. Samples were re-suspended in water and deoxyribonucleside triphosphate levels were measured as previously described (12).

[3] = tested on: CAD, ERK and S6K1 phosphorylation in SUM-159PT cells; assay: Immunoblotting of CAD, ERK and S6K1 phosphorylation in SUM-159PT cells; assay type: cell-based
Procedure: (§2) Immunoblotting: Cells were washed with ice-cold PBS and lysed in radioimmunoprecipitation buffer (RIPA; 1% NP-40, 0.5% sodium deoxycholate, 0.1% SDS, 150 mmol/L NaCl, 50 mmol/L Tris-HCl, pH 7.5, protease inhibitor cocktail, 50 nmol/L calyculin A, 1 mmol/L sodium pyrophosphate, and 20 mmol/L sodium fluoride). Cell extracts were cleared by centrifugation and protein concentration was measured with the Bio-Rad DC protein assay. Lysates were then resolved on acrylamide gels by SDS-PAGE and transferred electrophoretically to nitrocellulose membrane (Bio-Rad). Blots were blocked in Tris-buffered saline (TBST) buffer (10 mmol/L Tris-HCl, pH 8, 150 mmol/L NaCl and 0.2% Tween 20) containing 5% (w/v) nonfat dry milk and then incubated with primary antibody overnight. Membranes were incubated with HRP-conjugated secondary antibody and developed using enhanced chemiluminescence substrate (EMD Millipore).

[4] = tested on: ovarian cancer cells (OVCAR3, OVCAR8); assay: Viability by propidium iodide uptake in ovarian cancer cells; assay type: cell-based, human; settings: brequinar pre-treatment 16 h, then doxorubicin 48 hours
Procedure: Since ovarian cancers display an increase in pyrimidine nucleotides following chemotherapy, we investigated the ability of pyrimidine synthesis inhibitors to sensitize these cells to chemotherapy. Cells were treated with varying doses of doxorubicin in combination with the DHODH inhibitor brequinar for 48 hours, and viability measured by propidium iodide uptake. As observed in breast cancer cells, brequinar also sensitized ovarian cancer cells to doxorubicin (FIGS. 8A-B).

[5] = tested on: human ovarian cancer cell lines (Karumochi, Ovcar3, Ovcar8, Skov3); assay: LC-MS/MS metabolite profiling of ovarian cancer cell lines; assay type: cell-based; settings: 2.5 μM cisplatin or 0.5 μM doxorubicin, 24 hours
Procedure: We treated four different human ovarian cancer cell lines with 2.5 μM cisplatin or 0.5 μM doxorubicin for 24 hours and harvested polar metabolites. The samples were profiled using LC-MS/MS for 303 endogenous metabolites. As in breast cancer cells, we observed increases in pyrimidine metabolites (FIGS. 7A-D).

[6] = tested on: p-H2A.X (Ser139) in SUM-159PT cells; assay: H2A.X phosphorylation (DNA damage) by immunoblotting and immunofluorescence; assay type: cell-based; settings: 0.5 μM doxorubicin, 10 hours
Procedure: as §2
Immunofluorescence: Cells plated on coverslips were fixed with 2% paraformaldehyde for 10 minutes, permeabilized with 0.5% Triton X-100, and blocked with 1% BSA in 20 mmol/L Tris-HCl, pH 7.5, for 20 minutes. Coverslips were then incubated with Alexa Fluor® 647—conjugated anti-phospho H2A.X 5139 antibody (1:100) for 3 hours. […] Images of cells were acquired using a fluorescence microscope (Nikon Eclipse Ti) and digital image analysis software (NIS-Elements, Nikon).

[7] = tested on: MDA-MB-231 tumor xenografts; assay: MDA-MB-231 xenograft combination therapy study (tumor volume); assay type: in vivo, nude mice; settings: for growth of MDA-MB-231 tumor xenografts (tumor volume): leflunomide 7.5 mg/kg i.p., doxorubicin 1 mg/kg i.p., 28 days
Procedure: Xenograft studies: Female nude mice (6 weeks old) were purchased from Taconic and maintained and treated under specific pathogen-free conditions. All procedures were approved by the Institutional Animal Care and Use Committee at Beth Israel Deaconess Medical Center (BIDMC) and conform to the federal guidelines for the care and maintenance of laboratory animals. The mice were injected subcutaneously with 4×10^6 MDA-MB-231 cells in medium containing 50% growth-factor-reduced, phenol red-free Matrigel (Corning). Tumor formation was examined every two to three days for the duration of the experiment. […] Tumors were collected and flash-frozen 24 hours after animals were exposed to vehicle or doxorubicin. […] Leflunomide (7.5 mg/kg) was administered on days 1-7, 10, 14, 17, 21 and 24 by i.p. injection. Doxorubicin (1 mg/kg) was administered on days 1, 7, 14 and 21 by i.p. injection. Mice were weighed on days 1, 7, 14, 21 and 28. Tumor volume was calculated using the following equation: Tumor volume=(π/6)(W^2)(L), where W represents width, and L represents length.

SUM-159PT cells [8] = assay: Mitochondrial respiration (oxygen consumption rate, Seahorse analyzer); assay type: cell-based
Procedure: Mitochondrial respiration: Mitochondrial respiration was assessed using the Seahorse XFe-96 Analyzer (Seahorse Bioscience). SUM-159PT cells (50,000 cells per well) were treated with vehicle control, 0.5 μM Doxorubicin, 20 μM A771726, or the combination (A771726 & Doxorubicin) for 4 hours in normal media conditions. Following this incubation, media was changed to a non-buffered, serum-free Seahorse Media (Seahorse Bioscience, Catalog #102353) supplemented with 5 mM glucose, 2 mM L-glutamine, and 1 mM sodium pyruvate, and the oxygen consumption rate (OCR) was measured. In addition, OCR was measured for 30 minutes upon drug treatment and cells were subsequently challenged with either 1 μM Oligomycin or 0.5 μM Antimycin A to assess their effect on mitochondrial respiration. All experiments were normalized to cell number.

[9] = tested on: CAD phosphorylation in TNBC cell lines (HCC1143, MDA-MB-468, CAL-51 and MDA-MB-231); assay: Immunoblotting of CAD phosphorylation in additional TNBC cell lines; assay type: cell-based; settings: 0.5 μM doxorubicin, 4 hours; HCC1143, MDA-MB-468, CAL51, MDA-MB-231
Procedure: as §2

[10] = tested on: de novo pyrimidine synthesis pathway in SUM-159PT cells; assay: Isotope labeling with L-glutamine (amide-15N), flux through de novo pyrimidine synthesis; assay type: cell-based; settings: 0.5 μM doxorubicin, 4 hours, then 1 hour labeling
Procedure: Isotope labeling: Ham's F12 medium lacking glutamine (Sigma-Aldrich) was supplemented with 100 μM L-glutamine (amide-^15N). SUM-159PT cells were treated with doxorubicin for 4 hours, at which point medium containing doxorubicin was aspirated and labeled medium was added to the cells. After 1 hour of labeling, cellular metabolites were extracted as described above and quantified using SRM on a 5500 QTRAP mass spectrometer using a protocol to detect ^15N-labelled isotopologues of metabolites in the de novo pyrimidine synthesis pathway.

[11] = tested on: TNBC cell lines (HCC1143, MDA-MB-468, CAL51 and MDA-MB-231); assay: Fluorescence-based deoxyribonucleoside triphosphate assay in additional TNBC cell lines; settings: 0.5 μM doxorubicin, 10 hours; HCC1143, MDA-MB-468, CAL51, MDA-MB-231
Procedure: as §1

[12] = tested on: MDA-MB-231 xenograft tumors; assay: LC-MS/MS metabolomics profiling of MDA-MB-231 xenograft tumors; assay type: in vivo, nude mice; settings: 1 mg/kg doxorubicin, 24 hours, versus vehicle-treated tumors
Procedure: (§3) LC-MS/MS metabolomics profiling: For in vitro studies, SUM-159PT cells were maintained in full growth medium, and fresh medium was added at the time cells were treated with doxorubicin. For metabolite extraction, medium from biological triplicates was aspirated and ice-cold 80% (v/v) methanol was added. Cells and the metabolite-containing supernatants were collected and the insoluble material in lysates was pelleted by centrifugation at 10,000 g for 10 min. The resulting supernatant was evaporated using a refridgerated SpeedVac. For in vivo studies, ice-cold 80% (v/v) methanol was added to flash-frozen tumor tissue. Tissue was homogenized using a TissueLyser (Qiagen). The insoluble material was pelleted by centrifugation at 10,000 g for 10 min. The resulting supernatant was evaporated using a refridgerated SpeedVac. Samples were re-suspended using 20 μl HPLC-grade water for mass spectrometry. Ten microlitres was injected and analysed using a 5500 QTRAP hybrid triple quadrupole mass spectrometer (AB/SCIEX) coupled to a Prominence UFLC HPLC system (Shimadzu) with selected reaction monitoring (SRM). Peak areas from the total ion current for each metabolite SRM transition were integrated using MultiQuant v2.0 software (AB/SCIEX). Data analysis was performed using MetaboAnalyst.

SUM-159PT cells [13] = assay: LC-MS/MS metabolomics profiling of SUM-159PT cells; assay type: cell-based; settings: 0.5 μM doxorubicin, 10 hours, versus vehicle
Procedure: as §3

[14] = clinical use; cited from earlier work
tumor xenograft models = settings: single agent, references 22, 23; cited from earlier work
[15] = 40 μM PALA, 0.5 μM doxorubicin 10 hours

Structure (SMILES): O=C(O)C[C@H](NC(=O)CP(=O)(O)O)C(=O)O [PALA, N-(phosphonacetyl)-L-aspartate]
- single-agent activity (percentage of dead cells) (SUM-159PT cells [1]): minimal single-agent activity
- sensitization of SUM-159PT cells to doxorubicin (percentage of dead cells) (SUM-159PT cells [1]; then doxorubicin 48 hours): dramatically sensitized
- effect on doxorubicin-induced alterations in dTTP levels (SUM-159PT cells [2]; [15]): did not inhibit
- effect on increase in dCTP levels induced by doxorubicin (SUM-159PT cells [2]; [15]): effectively abrogated

Structure (SMILES): N#CC(=C(/N)Sc1ccccc1N)/C(C#N)=C(\N)Sc1ccccc1N [U0126]
- effect on increase in pyrimidine nucleotides following doxorubicin exposure (SUM-159PT cells [2]; 5 μM U0126, 0.5 μM doxorubicin 10 hours): effectively suppressed
- effect on doxorubicin-induced CAD Thr456 phosphorylation ([3]; 5 μM U0126 pre-treatment 12 hours, then 0.5 μM doxorubicin 4 hours): blocked

Structure (SMILES): Cc1c(-c2ccc(-c3ccccc3F)cc2)nc2ccc(F)cc2c1C(=O)O [brequinar]
- single-agent activity (percentage of dead cells) (SUM-159PT cells [1]): minimal single-agent activity
- sensitization of SUM-159PT cells to doxorubicin (percentage of dead cells) (SUM-159PT cells [1]; then doxorubicin 48 hours): dramatically sensitized
- sensitization of ovarian cancer cells to doxorubicin (viability) [4]: sensitized

Structure (SMILES): N.N.[Cl][Pt][Cl] [cisplatin]
- dCTP and dTTP (pyrimidine nucleoside triphosphate) levels, fluorescence-based assay (SUM-159PT cells [2]): Elevated levels
- pyrimidine metabolite abundance, LC-MS/MS [5]: increases

Structure (SMILES): COc1cccc2c1C(=O)c1c(O)c3c(c(O)c1C2=O)C[C@@](O)(C(=O)CO)C[C@@H]3O[C@H]1C[C@H](N)[C@H](O)[C@H](C)O1 [doxorubicin]
- cell viability (percentage of dead cells) (SUM-159PT cells [1]; 0.5 μM doxorubicin alone, 48 hours, SUM-159PT): negligible effects on cell viability
- DNA damage (histone H2A.X phosphorylation) [6]: effectively induced DNA damage
- growth of MDA-MB-231 tumor xenografts (tumor volume) [7]: cytostatic
- dCTP and dTTP (pyrimidine nucleoside triphosphate) levels, fluorescence-based assay (SUM-159PT cells [2]): robustly increased
- oxygen consumption rate (OCR) (SUM-159PT cells [8]; 0.5 μM doxorubicin or 20 μM A771726, 4 hours, 50,000 SUM-159PT cells): negligible effect
- sensitivity of OCR to oligomycin and antimycin (SUM-159PT cells [8]; 0.5 μM doxorubicin, 1 μM oligomycin, 0.5 μM Antimycin A): did not affect sensitivity
- CAD Ser1859 phosphorylation [9]: No changes
- CAD Thr456 phosphorylation [9]: stimulated
- incorporation of 15N-glutamine label into N-carbamoyl-aspartate [10]: significant increase
- pyrimidine metabolite abundance, LC-MS/MS [5]: increases
- abundance of dCTP and dTTP [11]: increased the abundance
- abundance of pyrimidine nucleotide species in tumors, LC-MS/MS [12]: significant increase
- ERK1/2 phosphorylation ([3]; 0.5 μM doxorubicin): increase
- phosphorylation state of CAD at the S6K1 site (Ser1859) ([3]; 0.5 μM doxorubicin): no measurable changes
- phosphorylation state of S6K1 ([3]; 0.5 μM doxorubicin): no measurable changes
- phosphorylation of CAD at the ERK site (Thr456) ([3]; 0.5 μM doxorubicin, within two hours): striking increase
- abundance of purine nucleotide species, LC-MS/MS (SUM-159PT cells [13]): elevated
- abundance of pyrimidine nucleotide species, LC-MS/MS (SUM-159PT cells [13]): increased the abundance of the majority of pyrimidine nucleotide species
- increase in deoxycytidine triphosphate (dCTP) level, LC-MS/MS (SUM-159PT cells [13]): greater than 2 fold
- increase in deoxythymidine triphosphate (dTTP) level, LC-MS/MS (SUM-159PT cells [13]): greater than 2 fold

Structure (SMILES): Cc1oncc1C(=O)Nc1ccc(C(F)(F)F)cc1 [leflunomide]
- growth of MDA-MB-231 tumor xenografts (tumor volume) [7]: did not significantly affect
- sensitization of MDA-MB-231 xenograft tumors to doxorubicin ([7]; leflunomide with doxorubicin 1 mg/kg): drastically sensitizes
- tolerability in humans [14]: well tolerated
- anti-tumor activity in tumor xenograft models (tumor xenograft models): anti-tumor activity

Structure (SMILES): O=c1ccn([C@@H]2O[C@H](CO)[C@@H](O)[C@H]2O)c(=O)[nH]1 [uridine]
- rescue: effect on efficacy of the A771726 plus doxorubicin combination treatment (percentage of dead cells) (SUM-159PT cells [1]; 100 μM uridine with 20 μM A771726 pre-treatment 12 hours, then doxorubicin 48 hours): completely blocked
